Source: the supplement of paper PMC3493320

System: NCI-H295R
Experiment: IC50 (antiproliferative, ATP content)
Conditions: 48 h
In short: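 Following overnight culture of adrenocortical carcinoma cells (1500 per well) in 1536-well plates with serum-free ITS-supplemented DMEM, library compounds were pin-transferred at 8 final concentrations from 0.6 nM to 46 µM. Incubation lasted 48 h at 37 °C, 5% CO2, and the CellTiter-Glo signal was read after 20 min at room temperature. Data were fitted with a four-parameter logistic model. Each IC50 came from that fit after normalisation to vehicle and positive-control wells, and compounds without a concentration response were reported as above the top dose.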

| IC50 | SMILES |
| --- | --- |
| > 46 µM | CC(=O)OCC(=O)[C@@]12OC3(CCCC3)O[C@@H]1C[C@H]1C3CCC4=CC(=O)C=C[C@]4(C)[C@@]3(F)[C@@H](O)C[C@@]12C (stereo not given in full) |
| > 46 µM | N[C@@H](Cc1ccc(O)c(O)c1)C(=O)O |
| > 46 µM | CN1CCc2c(c3ccccc3n2Cc2ccccc2)C1.CN1CCc2c(c3ccccc3n2Cc2ccccc2)C1.O=S(=O)(O)c1cccc2c(S(=O)(=O)O)cccc12 |
| > 46 µM | Cl.O=c1n(CCCN2CCN(c3cccc(Cl)c3)CC2)nc2ccccn12 |
| > 46 µM | CS(=O)(=O)Nc1cc2\C=C(/Nc2cc1)C(=O)N3CCN(CC3)c4ncccc4NC(C)C |
| > 46 µM | O=C2N1[C@]([C@@]([H])2NC(C3=C(C)ON=C3C(C(Cl)=CC=C4)=C4F)=O)([H])SC(C)(C)[C@@H]1[C@@]([O-])=O.[Na+] |
| > 46 µM | C[N+]1(CC2COC(c3ccccc3)(C3CCCCC3)O2)CCCCC1.[I-] (stereo not given) |
| > 46 µM | Cc1cc(-c2ccccc2)nnc1NCCN1CCOCC1.Cl.Cl |
| > 46 µM | CC(=O)Nc1ccc(OC(C)=O)cc1 |
| > 46 µM | Nc1nc(=O)c2ncn(CCC(CO)CO)c2[nH]1 |
| > 46 µM | O=[C@@](N[C@@H]([C@@](O)=O)CC2=CC=CC=C2)[C@@H]1CC[C@@H]([C@H](C)C)CC1 |
| > 46 µM | NC(=O)NNc1ccccc1 |
| > 46 µM | Cl.NCc1ccc(S(N)(=O)=O)cc1 |
| > 46 µM | Cc1cccc(C)c1NC(=O)NC1=CCCN1C |
| > 46 µM | Cl.O=C(O)c1cn(-c2ccc(F)cc2)c2cc(N3CCNCC3)c(F)cc2c1=O |
| > 46 µM | COc1ccc(OC)c(C(O)CNC(=O)CN)c1.Cl (stereo not given) |
| > 46 µM | CC[C@H](C)[C@H](N)C1=N[C@H](C(=O)N[C@@H](CC(C)C)C(=O)N[C@H](CCC(=O)O)C(=O)N[C@H](C(=O)N[C@H]2CCCCNC(=O)[C@H](CC(N)=O)NC(=O)[C@@H](CC(=O)O)NC(=O)[C@H](Cc3cnc[nH]3)NC(=O)[C@@H](Cc3ccccc3)NC(=O)[C@H]([C@@H](C)CC)NC(=O)[C@@H](CCCN)NC2=O)[C@@H](C)CC)CS1 |
| > 46 µM | CC(C)(C)c1ccc(C(O)CCCN2CCC(C(O)(c3ccccc3)c3ccccc3)CC2)cc1 (stereo not given) |
| > 46 µM | CN1CCC(OC(c2ccccc2)c2ccccc2)CC1.Cl |

| IC50 | SMILES |
| --- | --- |
| > 46 µM | CCOC(=O)c1c(N)sc2c1CCN(Cc1ccccc1)C2.Cl |
| > 46 µM | Cn1nnc2c(C(N)=O)ncn2c1=O |
| > 46 µM | CCn1cc(C(=O)O)c(=O)c2cnc(N3CCCC3)nc21 |
| > 46 µM | O=C1c2c(O)cccc2[C@H]([C@@H]2O[C@H](CO)[C@@H](O)[C@H](O)[C@H]2O)c2cc(CO)cc(O)c21 |
| > 46 µM | Oc1cccc(O)c1 |
| > 46 µM | C[S+](CC[C@H](N)C(=O)O)C[C@H]1O[C@@H](n2cnc3c(N)ncnc32)[C@H](O)[C@@H]1O.[Cl-] (stereo not given in full) |
| > 46 µM | CO/N=C(\C(=O)N[C@@H]1C(=O)N2C(C(=O)[O-])=C(CSc3nc(=O)c([O-])nn3C)CS[C@H]12)c1csc(N)n1.O.O.O.[Na+].[Na+] |
| > 46 µM | CCCCNc1cc(C(=O)O)cc(S(N)(=O)=O)c1Oc1ccccc1 |
| > 46 µM | CN1[C@@H]2CC[C@H]1C[C@@H](OC(=O)c1c[nH]c3ccccc13)C2 |
| > 46 µM | NC(=O)NS(=O)(=O)c1ccc(N)cc1 |
| > 46 µM | CCC(=O)c1c(O)cc(O)cc1O |
| > 46 µM | CC(C)n1c(/C=C/[C@@H](O)C[C@@H](O)CC(=O)[O-])c(-c2ccc(F)cc2)c2ccccc21.[Na+] |
| > 46 µM | O=C1Cc2cc(CCN3CCN(c4nsc5ccccc45)CC3)c(Cl)cc2N1 |
| > 46 µM | NS(=O)(=O)c1cc2c(cc1Cl)NC(C1CC3C=CC1C3)NS2(=O)=O (stereo not given) |
| > 46 µM | CC(C)Cn1cnc2c1c(=O)n(C)c(=O)n2C |
| > 46 µM | CCc1ccc(C(=O)C(C)CN2CCCCC2)cc1.Cl (stereo not given) |
| > 46 µM | O=C1N(C(C(O)=O)=C(CSC4=NN=NN4C)CS2)[C@@]2([H])[C@@]([H])1NC([C@@H]([C@@](C=C5)=CC=C5O)NC(C3=C(O)C=C(C)N=C3)=O)=O |
| > 46 µM | CNCCCC1c2ccccc2C=Cc2ccccc21.Cl |
| > 46 µM | O=[C@@]([O-])[C@@H](CC3=CC=CC=C3)CC(N1C[C@@]2([H])[C@@](CCCC2)([H])C1)=O.O=[C@@]([O-])[C@@H](CC6=CC=CC=C6)CC(N4C[C@@]5([H])[C@@](CCCC5)([H])C4)=O.O.O.[Ca+2] |

More lines, now with the values behind:

| SMILES | IC50 |
| --- | --- |
| COc1ccc2c(c1OC)C(=O)O[C@H]2[C@@H]1c2cc3c(cc2CCN1C)OCO3 | > 46 µM |
| NCCCC(O)(P(=O)([O-])O)P(=O)(O)O.O.O.O.[Na+] | > 46 µM |
| CC(=O)[C@]2(CC[C@H]3[C@@H]4C[C@H](C)\C1=C\C(=O)CC[C@]1(C)[C@H]4CC[C@]23C)OC(C)=O | > 46 µM |
| CNC1(C)C2CCC(C2)C1(C)C (stereo not given) | > 46 µM |
| CCC1C2CC3[C@@H]4N(C)c5ccccc5C45CC(C2[C@H]5O)N3[C@@H]1O (stereo not given in full) | > 46 µM |
| CC(C)CCCC(C)NC(C)C (stereo not given) | > 46 µM |
| CN(C)N=Nc1nc[nH]c1C(N)=O | > 46 µM |
| CCC1OC(=O)C[C@@H](O)[C@H](C)[C@@H](O[C@@H]2O[C@H](C)C[C@H](N(C)C)[C@H]2O)[C@@H](CC=O)C[C@@H](C)C(=O)/C=C/[C@]2(C)OC2C1C (stereo not given in full) | > 46 µM |
| C[C@@H]1[C@H](O)[C@@H](C)/C=C/C=C/C=C/C=C/C=C/C=C/C=C/[C@H](O[C@@H]2O[C@H](C)[C@@H](O)[C@H](N)[C@@H]2O)C[C@@H]2O[C@](O)(C[C@@H](O)C[C@@H](O)[C@H](O)CC[C@@H](O)C[C@@H](O)CC(=O)O[C@H]1C)C[C@H](O)[C@H]2C(=O)O | > 46 µM |
| CN[C@@H]1[C@H](O[C@H]2[C@H](O[C@H]3[C@H](O)[C@@H](O)[C@H](NC(=N)N)[C@@H](O)[C@@H]3NC(=N)N)O[C@@H](C)[C@]2(O)CO)O[C@@H](CO)[C@H](O)[C@H]1O.CN[C@@H]1[C@H](O[C@H]2[C@H](O[C@H]3[C@H](O)[C@@H](O)[C@H](NC(=N)N)[C@@H](O)[C@@H]3NC(=N)N)O[C@@H](C)[C@]2(O)CO)O[C@@H](CO)[C@H](O)[C@H]1O.O=S(=O)(O)O.O=S(=O)(O)O.O=S(=O)(O)O | > 46 µM |
| O=C(O)CCCCC(=O)O | > 46 µM |
| CC(C)(CO)[C@@H](O)C(=O)NCCCC(=O)[O-].CC(C)(CO)[C@@H](O)C(=O)NCCCC(=O)[O-].[Ca+2] | > 46 µM |
| O=C1CC[C@@]2(O)[C@H]3Cc4ccc(O)c5c4[C@@]2(CCN3CC2CC2)[C@H]1O5 | > 46 µM |
| C[C@H]1O[C@H](OC[C@@H]2O[C@H](Oc3c(-c4ccc(OCCO)c(OCCO)c4)oc4cc(OCCO)cc(O)c4c3=O)[C@@H](O)[C@H](O)[C@H]2O)[C@@H](O)[C@@H](O)[C@@H]1O | > 46 µM |
| CSCCC(N)C(=O)O (stereo not given) | > 46 µM |
| C=CCN1C(=O)C(CC(C)C)NC1=S (stereo not given) | > 46 µM |
| CS(=O)(=O)O.N[C@@H]1[C@H]2CN(c3nc4c(cc3F)c(=O)c(C(=O)O)cn4-c3ccc(F)cc3F)C[C@@H]12 | > 46 µM |
| C[N+]1(CCCCC[N+]2(C)CCCC2)CCCC1.O=C([O-])[C@H](O)[C@@H](O)C(=O)O.O=C([O-])[C@H](O)[C@@H](O)C(=O)O | > 46 µM |
| O=C1CCCCC1CN1CCCCC1 (stereo not given) | > 46 µM |
| CCCCCCCCCCCCCCCC(=O)OC[C@@H](O)[C@H]1OC[C@H](O)[C@H]1O | > 46 µM |
| CCCCC[C@H](O)/C=C/[C@@H]1[C@@H](C/C=C\CCCC(=O)O)[C@@H](O)C[C@H]1O.COC(N)(CO)CO | > 46 µM |

| SMILES | IC50 |
| --- | --- |
| CCCCCCCCCCCCCCCCCCCCCC(=O)Nc1ccn([C@@H]2O[C@H](CO)[C@@H](O)[C@@H]2O)c(=O)n1 | > 46 µM |
| O=C(O)CCCCCCCC(=O)O | > 46 µM |
| F[C@]2([C@](C)3CC4)[C@@H](O)C[C@]1(C)[C@@](OC(C)=O)([C@@](C)=O)CC[C@]([H])1[C@@]([H])2CCC3=CC4=O | > 46 µM |
| O[C@H]1[C@H](O)[C@@H](O)[C@H](O)[C@@H](O)[C@H]1O | > 46 µM |
| CCOc1cc(N)c(Cl)cc1C(=O)NCC1CN(Cc2ccc(F)cc2)CCO1.O=C(O)CC(O)(CC(=O)O)C(=O)O (stereo not given) | > 46 µM |
| O=[C@@](OCN2C(N(CC#C)CC2=O)=O)[C@H]1C(C)(C)[C@@H]1\C=C(C)/C | > 46 µM |
| CC(C)[C@@H](C)/C=C/[C@@H](C)[C@H]1CC[C@H]2/C(=C/C=C3\C[C@@H](O)CC[C@@H]3C)CCC[C@]12C | > 46 µM |
| CCCCCCCCCCCCCCCCCC(=O)O | > 46 µM |
| CCCCCCCCCCCCCCCCCCOC[C@H](COP(=O)([O-])OCC[N+](C)(C)C)OC | > 46 µM |
| O=C(CN1CCNCC1)NC1CCCCC1 | > 46 µM |
| C=CCn1c(=O)n([C@@H]2O[C@H](CO)[C@@H](O)[C@H]2O)c2nc(N)[nH]c(=O)c21 | > 46 µM |
| C[N+]1(C)[C@@H]2CC[C@H]1C[C@@H](OC(=O)C(CO)c1ccccc1)C2.O=[N+]([O-])[O-] (stereo not given in full) | > 46 µM |
| C[N+](C)(C)CCOC(N)=O.[Cl-] | > 46 µM |
| CCCCCCCCCC(=O)O[C@H]1CC[C@H]2[C@@H]3CCC4=CC(=O)CC[C@]4(C)[C@H]3CC[C@]12C | > 46 µM |
| O.O.O.O.O.O.O=P([O-])([O-])OP(=O)([O-])OP(=O)([O-])[O-].[Na+].[Na+].[Na+].[Na+].[Na+] | > 46 µM |
| CCCCC[C@H](O)/C=C/[C@H]1[C@H](O)CC(=O)[C@@H]1C/C=C\CCCC(=O)O | > 46 µM |
| N=C(N)NCC1COC2(CCCCC2)O1.N=C(N)NCC1COC2(CCCCC2)O1.O=S(=O)(O)O (stereo not given) | > 46 µM |
| COC(=O)[C@@H](N)CCCN/C(N)=N/[N+](=O)[O-] | > 46 µM |
| CN[C@@H](C)[C@@H]1CC[C@@H](N)[C@@H](O[C@H]2[C@H](O)[C@@H](O[C@H]3OC[C@](C)(O)[C@H](NC)[C@H]3O)[C@H](N)C[C@@H]2N)O1.O=S(=O)(O)O | > 46 µM |
| NCC[C@H](O)C(=O)N[C@@H]1C[C@H](N)[C@@H](O[C@H]2O[C@H](CN)[C@@H](O)[C@H](O)[C@H]2O)[C@H](O)[C@H]1O[C@H]1O[C@H](CO)[C@@H](O)[C@H](N)[C@H]1O | > 46 µM |
| O.O=C(/C=C/C(O)c1ccc(Cl)cc1)[O][Na] (stereo not given) | > 46 µM |
